Patent US10899754B2, “Modulators of indoleamine 2,3-dioxygenase” (GLAXOSMITHKLINE INTELLECTUAL PROPERTY DEVELOPMENT LIMITED, priority 2016, dated 2021)

Experiments:
[1] = system: human peripheral blood mononuclear cells (PBMC); test: PBMC cytotoxicity assay (CellTiter-Glo); format: cell-based; settings: 2 days, pCC50
Outline: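 Human PBMC (50,000 cells/well) stimulated with IFN-γ 100 ng/ml and LPS 50 ng/ml were exposed to 11-point 3-fold compound dilutions for 2 days at 37 °C, 5% CO2. Viability read by CellTiter-Glo ATP luminescence and normalized to no-cell and stimulated-DMSO controls. XC50 derived by four-parameter fit.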

[2] = molecular target: indoleamine 2, 3-dioxygenase (IDO1) (Homo sapiens, UniProt P14902); test: IDO1 PBMC RapidFire MS assay (kynurenine detection by mass spectrometry); format: cell-based; parameters: to induce the expression of indoleamine 2, 3-dioxygenase (IDO1); host or cells: human PBMC stimulated with IFN-gamma and LPS; settings: human PBMC stimulated with IFN-γ and LPS, 2 days, pIC50, read-out: PBMC PXC50 (converted)
indoleamine 2, 3-dioxygenase (IDO1), sequence (P14902 whole entry): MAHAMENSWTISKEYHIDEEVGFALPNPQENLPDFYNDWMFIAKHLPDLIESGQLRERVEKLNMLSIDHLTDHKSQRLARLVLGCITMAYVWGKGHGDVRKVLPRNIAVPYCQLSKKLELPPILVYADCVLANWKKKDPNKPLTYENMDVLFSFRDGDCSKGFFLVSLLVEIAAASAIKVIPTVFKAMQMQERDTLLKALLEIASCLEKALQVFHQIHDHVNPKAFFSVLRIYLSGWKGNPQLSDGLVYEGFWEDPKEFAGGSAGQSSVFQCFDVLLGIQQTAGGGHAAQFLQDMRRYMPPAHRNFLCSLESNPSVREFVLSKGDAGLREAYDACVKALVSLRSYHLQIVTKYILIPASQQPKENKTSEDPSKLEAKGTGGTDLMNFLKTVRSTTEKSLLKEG
Outline: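 PBMCs (50,000 cells/well) stimulated with IFN-γ 100 ng/ml plus LPS 50 ng/ml, treated with 11-point 3-fold compound series for 2 days at 37° C. Supernatant kynurenine measured by RapidFire MS, normalised to internal standard; parallel cytotoxicity by CellTiter-Glo luminescence; curves fitted for XC50.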

With CO[C@H]1CC[C@@H](N(CC(C)C)c2ccc([C@H](C)CC(=O)O)cc2Nc2ccc(C#N)cn2)CC1 [Example 53, (R)-3-(3-((5-cyanopyridin-2-yl)amino)-4-(isobutyl((1s,4S)-4-methoxycyclohexyl)amino)phenyl)butanoic Acid] the “PBMC TOX PXC50” value [1] was less than 5 and the IC50 [2] was 1.58 nM.

In the case of CC(C)CN(c1ccc([C@H](C)CC(=O)O)cc1Nc1nc(C(F)(F)F)ns1)C1CCN(c2nc(C(F)(F)F)ns2)CC1 [Example 95, (R)-3-(4-(isobutyl(1-(3-(trifluoromethyl)-1,2,4-thiadiazol-5-yl)piperidin-4-yl)amino)-3-((3-(trifluoromethyl)-1,2,4-thiadiazol-5-yl)amino)phenyl)butanoic Acid], the “PBMC TOX PXC50” value [1] is reported as less than 5 and the IC50 [2] is reported as 1.58 nM.

For CC(C)CN(c1ccc([C@H](C)CC(=O)NO)cc1Nc1nc(C(F)(F)F)ns1)C1CCOCC1 [example 233, (3R)-N-hydroxy-3-{4-[(2-methylpropyl)(oxan-4-yl)amino]-3-{[3-(trifluoromethyl)-1,2,4-thiadiazol-5-yl]amino}phenyl}butanoic amide], the “PBMC TOX PXC50” value [1] was less than 5 and the IC50 [2] was 20 nM.

For CC(C)CN(c1ccc([C@H](C)CC(=O)NS(C)(=O)=O)cc1Nc1nc(C(F)(F)F)ns1)C1CCOCC1 [Example 107, (R)-3-(4-(Isobutyl(tetrahydro-2H-pyran-4-yl)amino)-3-((3-(trifluoromethyl)-1,2,4-thiadiazol-5-yl)amino)phenyl)-N-(methylsulfonyl)butanamide], the “PBMC TOX PXC50” value [1] was 5.3 and the IC50 [2] was 6.31 nM.

CC(C)CN(CC(C)C)c1ccc(C(C)(C)CC(=O)O)cc1Nc1nc(C(F)(F)F)ns1 [Example 3, 3-(4-(diisobutylamino)-3-((3-(trifluoromethyl)-1,2,4-thiadiazol-5-yl)amino)phenyl)-3-methylbutanoic Acid] was tested, and the “PBMC TOX PXC50” value [1] was less than 5 and the IC50 [2] was 1.58 nM.

For CNC(=O)c1nc(Nc2cc([C@H](C)CC(=O)O)ccc2N(CC(C)C)[C@H]2CC[C@@H](OC)CC2)n[nH]1 (racemic) [example 246, (3RS)-3-(3-{[5-(methylcarbamoyl)-1H-1,2,4-triazol-3-yl]amino}-4-[(2-methylpropyl)[(1rs&,4rs&)-4-methoxycyclohexyl]ami-no]phenyl)butanoic acid], the “PBMC TOX PXC50” value [1] was less than 5 and the IC50 [2] was 25.1 nM.

For CC(C)CN(c1ccc(-c2ccncc2C(=O)O)cc1Nc1nc(C(F)(F)F)ns1)C1CCOCC1 [example 267, 4-{4-[(2-methylpropyl)(oxan-4-yl)amino]-3-{[3-(trifluoromethyl)-1,2,4-thiadiazol-5-yl]amino}phenyl}pyridine-3-carboxylic acid], the “PBMC TOX PXC50” value [1] was less than 5 and the IC50 [2] was 39.8 nM.

CC(C)CN(c1ccc([C@H](C)CC(=O)O)cc1Nc1nc(C(F)(F)F)ns1)C1CCN(C(=O)OC(C)(C)C)CC1 [Example 69, (R)-3-(4-((1-(tert-butoxycarbonyl)piperidin-4-yl) (isobutyl)amino)-3-((3-(trifluoromethyl)-1,2,4-thiadiazol-5-yl)amino)phenyl)butanoic Acid] was tested, and the “PBMC TOX PXC50” value [1] was less than 5 and the IC50 [2] was 2.51 nM.

In the case of CC(C)CN(c1ccc([C@H](C)CC(=O)O)cc1Nc1ccc(C(F)(F)F)nc1)C1CCOCC1 [Example 7, (R)-3-(4-(isobutyl(tetrahydro-2H-pyran-4-yl)amino)-3-((6-(trifluoromethyl)pyridin-3-yl)amino)phenyl)butanoic Acid], the “PBMC TOX PXC50” value [1] is reported as less than 5 and the IC50 [2] is reported as 0.631 nM.

With CC(C)CN(c1ccc(C(C)CC(=O)O)cc1Nc1nnc(C(=O)NC(C)C)s1)C1CCCCC1 (stereo not shown) [example 245, 3-{4-[cyclohexyl(2-methylpropyl)amino]-3-({5-[(propan-2-yl)carbamoyl]-1,3,4-thiadiazol-2-yl}amino)phenyl}butanoic acid] the “PBMC TOX PXC50” value [1] was less than 5 and the IC50 [2] was 398 nM.

CONC(=O)C[C@@H](C)c1ccc(N(CC(C)C)C2CCOCC2)c(Nc2nc(C(F)(F)F)ns2)c1 [Example 106, (R)-3-(4-(Isobutyl(tetrahydro-2H-pyran-4-yl)amino)-3-((3-(trifluoromethyl)-1,2,4-thiadiazol-5-yl)amino)phenyl)-N-methoxybutanamide] was tested, and the “PBMC TOX PXC50” value [1] was less than 5 and the IC50 [2] was 6.31 nM.
